Calls of active or inactive are those of the source. The calls are words filed in the database; no cut-off is given here.
What was measured:
[1] = target: Protein-arginine deiminase type-4 (Homo sapiens, UniProt Q9UM07); assay: Inhibition of PAD4 (unknown origin) using Nalpha-benzoyl-L-arginine ethyl ester as substrate preincubated for 60 mins followed by substrate addition and measured after 90 mins by colorimetric analysis
4T1 = assay: Antiproliferative activity against mouse 4T1 cells assessed as inhibition of cell growth incubated for 48 hrs by MTT assay; assay type: functional, cell-based; details: 4T1, 48 h
MDA-MB-468 = assay: Antiproliferative activity against human MDA-MB-468 cells assessed as inhibition of cell growth incubated for 48 hrs by MTT assay; assay type: functional, cell-based; details: MDA-MB-468, 48 h
[2] = target: Protein-arginine deiminase type-4 (Mus musculus) (UniProt Q9Z183); assay: Inhibition of PAD4 in BALB/c mouse bone marrow neutrophils assessed as reduction in histone H3 citrullination at 2 uM preincubated for 2 hrs followed by calcium ionophore A23187 addition and measured after 2 hrs by Hoechst 33342/Ly6G staining based laser confocal microscopic analysis; details: Neutrophil, time 4.0 hrs
[3] = Tmax in male Sprague-Dawley rat at 3.5 mg/kg, iv by LC-MS/MS analysis; assay type: ADME, organism-based; details: in vivo
[4] = Terminal half life in male Sprague-Dawley rat at 3.5 mg/kg, iv by LC-MS/MS analysis; assay type: ADME, organism-based; details: in vivo
[5] = Clearance in male Sprague-Dawley rat at 3.5 mg/kg, iv by LC-MS/MS analysis; assay type: ADME, organism-based; details: in vivo
4T1-Luc [6] = assay: Antitumor activity against mouse orthotopic 4T1-Luc cells implanted in female BALB/c mouse assessed as improvement in animal survival at 10 mg/kg, iv administered via tail vein every 2 days for 9 times for 17 days and measured every 2 days; assay type: functional, organism-based; details: time 17.0 day
4T1-Luc [7] = assay: Antitumor activity against mouse orthotopic 4T1-Luc cells implanted in iv dosed female BALB/c mouse assessed as inhibition of tumor growth administered via tail vein every 2 days for 9 times for 17 days and measured every 2 days by IVIS live cell imaging analysis; assay type: functional, organism-based; details: dose 1-10 mg/kg, time 17.0 day
4T1-Luc [8] = assay: Antitumor activity against mouse orthotopic 4T1-Luc cells implanted in iv dosed female BALB/c mouse assessed as reduction in tumor volume administered via tail vein every 2 days for 9 times for 17 days and measured every 2 days; assay type: functional, organism-based; details: dose 1-10 mg/kg, time 17.0 day
[9] = Toxicity in female BALB/c mouse implanted with mouse orthotopic 4T1-Luc cells assessed as reduction in body weight at 1 to 10 mg/kg, iv administered via tail vein every 2 days for 9 times for 17 days and measured every 2 days; assay type: organism-based; details: in vivo, 408 h, dose 1-10 mg/kg, time 17 day
[10] = Toxicity in female BALB/c mouse implanted with mouse orthotopic 4T1-Luc cells assessed as effect on serum creatinine level at 1 to 10 mg/kg, iv administered via tail vein every 2 days for 9 times for 17 days; assay type: organism-based; details: in vivo, 408 h, dose 1-10 mg/kg, time 17 day
[11] = Toxicity in female BALB/c mouse implanted with mouse orthotopic 4T1-Luc cells assessed as morphological changes in kidney at 1 to 10 mg/kg, iv administered via tail vein every 2 days for 9 times for 17 days by H and E staining based analysis; assay type: organism-based; details: in vivo, 408 h, dose 1-10 mg/kg, time 17 day
Mus musculus [12] = assay: In vivo inhibition of PAD4 in female BALB/c mouse implanted with mouse orthotopic 4T1-Luc cells assessed as inhibition of histone H3 citrullination in tumor at 10 mg/kg, iv administered via tail vein every 2 days for 9 times for 17 days by immunohistochemical staining based analysis; assay type: functional, organism-based; details: time 17.0 day
Neutrophil = assay: In vivo inhibition of PAD4 in female BALB/c mouse implanted with mouse orthotopic 4T1-Luc cells assessed as inhibition of neutrophil extracellular traps formation in tumor at 10 mg/kg, iv administered via tail vein every 2 days for 9 times for 17 days by immunohistochemical staining based analysis; assay type: functional, organism-based; details: time 17.0 day
4T1-Luc [13] = assay: Antitumor activity against mouse orthotopic 4T1-Luc cells implanted in female BALB/c mouse assessed as increase in neutrophil infiltration in tumor at 10 mg/kg, iv administered via tail vein every 2 days for 9 times for 17 days by immunohistochemical staining based analysis; assay type: functional, organism-based; details: time 17.0 day
Mus musculus [14] = assay: Induction of tumor microenvironment in female BALB/c mouse implanted with mouse orthotopic 4T1-Luc cells assessed as m1 macrophage polarization by measuring upregulation of conventional dendritic cells at 1 to 10 mg/kg, iv administered via tail vein every 2 days for 9 times for 17 days by single-cell mass spectrometry flow cytometry analysis; assay type: functional, organism-based; details: dose 1-10 mg/kg, time 17.0 day

Protein-arginine deiminase type-4, sequence (Q9UM07 whole entry): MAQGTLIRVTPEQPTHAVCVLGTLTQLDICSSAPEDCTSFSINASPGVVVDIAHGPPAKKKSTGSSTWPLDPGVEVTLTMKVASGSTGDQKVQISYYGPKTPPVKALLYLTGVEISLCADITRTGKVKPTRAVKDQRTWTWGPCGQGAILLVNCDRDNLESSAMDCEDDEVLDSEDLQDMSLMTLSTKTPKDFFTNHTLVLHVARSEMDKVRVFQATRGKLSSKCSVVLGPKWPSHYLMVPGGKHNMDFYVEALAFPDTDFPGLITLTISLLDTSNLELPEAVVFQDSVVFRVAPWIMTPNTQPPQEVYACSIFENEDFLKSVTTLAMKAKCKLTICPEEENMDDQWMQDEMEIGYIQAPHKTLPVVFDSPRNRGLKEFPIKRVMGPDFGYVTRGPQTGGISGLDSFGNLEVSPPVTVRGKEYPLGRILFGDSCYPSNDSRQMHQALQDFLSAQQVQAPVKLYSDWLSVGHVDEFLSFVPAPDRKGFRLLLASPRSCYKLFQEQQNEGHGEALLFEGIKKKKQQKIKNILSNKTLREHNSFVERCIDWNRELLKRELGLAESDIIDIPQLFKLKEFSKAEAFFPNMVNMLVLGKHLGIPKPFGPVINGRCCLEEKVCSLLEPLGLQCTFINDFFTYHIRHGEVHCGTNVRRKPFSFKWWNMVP
Protein-arginine deiminase type-4 (Mus musculus), sequence (Q9Z183 whole entry): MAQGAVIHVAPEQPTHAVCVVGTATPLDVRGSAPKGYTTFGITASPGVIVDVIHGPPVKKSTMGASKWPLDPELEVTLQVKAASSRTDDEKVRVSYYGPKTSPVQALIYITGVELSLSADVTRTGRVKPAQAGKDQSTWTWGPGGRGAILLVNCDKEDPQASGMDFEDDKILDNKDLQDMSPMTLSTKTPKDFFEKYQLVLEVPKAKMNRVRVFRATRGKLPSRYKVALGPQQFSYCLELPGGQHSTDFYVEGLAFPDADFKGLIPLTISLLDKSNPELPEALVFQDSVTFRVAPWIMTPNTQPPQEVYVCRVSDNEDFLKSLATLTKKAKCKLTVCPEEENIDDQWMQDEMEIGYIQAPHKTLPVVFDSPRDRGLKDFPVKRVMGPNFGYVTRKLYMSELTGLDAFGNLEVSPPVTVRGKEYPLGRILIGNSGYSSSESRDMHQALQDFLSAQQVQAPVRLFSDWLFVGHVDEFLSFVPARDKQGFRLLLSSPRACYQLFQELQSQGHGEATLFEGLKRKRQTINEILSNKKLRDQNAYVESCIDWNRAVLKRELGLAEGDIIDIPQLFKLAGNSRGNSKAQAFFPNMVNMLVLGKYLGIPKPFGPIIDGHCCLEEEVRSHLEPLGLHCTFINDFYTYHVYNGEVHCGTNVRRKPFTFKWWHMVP

IC50 [1]: 790 nM
IC50 (4T1): 2390 nM
IC50 (MDA-MB-468): 2340 nM
inhibition [2]: Active
Tmax [3]: 4.8 min
beta t1/2 [4]: 15 min
CL [5]: 1754 mL/min/kg
SMILES: N=C(CCl)NCCC[C@H](NC(=O)c1cc2c([nH]c3ccccc32)c(-c2ccccc2)n1)C(=O)NCc1ccccc1
Activity (4T1-Luc [6]): Active
Activity (4T1-Luc [7]): Dose-Dependent Effect
Activity (4T1-Luc [8]): Dose-Dependent Effect
Activity [9]: Non-Toxic
Activity [10]: Non-Toxic
Activity [11]: Non-Toxic
inhibition (Mus musculus [12]): Active
inhibition (Neutrophil): Active
Activity (4T1-Luc [13]): Active
Activity (Mus musculus [14]): Active

Source: ChEMBL document CHEMBL5506043, “A β-Carboline Derivate PAD4 Inhibitor Reshapes Neutrophil Phenotype and Improves the Tumor Immune Microenvironment against Triple-Negative Breast Cancer” (J Med Chem, 2024)
